Reference: PMC11050087, “Polyphenols from Maackia amurensis Heartwood Protect Neuronal Cells from Oxidative Stress and Prevent Herpetic Infection” (International Journal of Molecular Sciences, 2024)

System: PQ-treated Neuro-2a cells
Assay: ROS analysis in PQ-treated cells (H2DCF-DA)
Assay type: cell-based, murine
Details: PQ 1 mM
Method: We previously studied the effect of stilbens 9, 10, 11, and 13 on cell viability and ROS level in PQ-treated Neuro-2a cells. Here, we evaluated the neuroprotective potential against the toxic effect of PQ of stilbene 1, flavonoid 6 and isoflavonoids 2–5, 7, 12 (Figure 7a–d).
Figure 7 The effect of polyphenolic compounds isolated from M. amurensis heartwood on cell viability (a–c) and ROS levels (d) in Neuro-2a cells treated with PQ (1 mM). Polyphenolic compounds isolated from M. amurensis heartwood were used at concentrations 10, 1, 0.1 μM. The data are presented as means ± SEM of three independent replicates. (*), (**), and (***) indicate, respectively, p < 0.05, p < 0.005, and p < 0.001 versus PQ-treated cells.
After 24 h of adhesion, Neuro-2a cells (5 × 10^4 cells/mL) were incubated with polyphenolic compounds at concentrations of 0.1, 1, and 10 µM for 1 h. Then, 120 µM of 6-OHDA or 1 mM of PQ were added to each well, and cells were incubated for 1 h. To study the ROS formation, 20 µL of 2,7-dichlorodihydrofluorescein diacetate solution (H2DCF-DA, Sigma-Aldrich, St. Louis, MO, USA) were added to each well, so that the final concentration was 10 µM. Then, the microplate was incubated for 30 min at 37 °C.

How did the “effect on ROS level in PQ-treated Neuro-2a cells (in words)” value turn out when `O=C1C[C@@H](c2ccc(O)cc2)Oc2cc(O)ccc21` [Compound 6, liquiritigenin] was run?
The value was “effectively reduced the ROS level”.
